Literature values in patent publication US10588912B2, “Methods of reducing mammographic breast density and/or breast cancer risk” (Havah Therapeutics Pty Ltd., priority 2014, dated 2020).

Conditions: oral absorption

In the case of `C[C@]12CC[C@H]3[C@@H](CCC4=CC(=O)CC[C@@]43C)[C@@H]1CC[C@@H]2O` [testosterone], the “fraction broken down in the intestines by aromatase and other metabolic pathways” value is listed as “approximately 85%”.
